Patent US8895471B2, “Chiral3-(benzylsulfinyl)-5,5-dimethyl-4,5-dihydroisoxazole derivatives and 5,5-dimethyl-3-[(1h-pyrazol-4-ylmethyl)sulfinyl]-4,5-dihyddroisoxazole derivatives, method for the production thereof, and use of same as herbicides and plant growth regulators” (Bayer Cropscience AG, priority 2007, dated 2014)

How the values were obtained:
[1] = test system: Brassica napus (winter rape); assay: Pre-emergence herbicidal effect and crop plant compatibility, BRSNW; type: in vivo; conditions: scored after about 3 weeks
Source text: (§1) 1. Pre-emergence herbicidal effect and crop plant compatibility
(§2) • Seeds of monocotyledonous or dicotyledonous weed plants or crop plants are planted in wood-fiber pots in sandy loam and covered with soil. The compounds according to the invention, formulated in the form of wettable powders (WP), are then applied as aqueous suspension at a water application rate of 600 l/ha (converted) with the addition of 0.2% of wetting agent to the surface of the covering soil. • After the treatment, the pots are placed in a greenhouse and kept under good growth conditions for the test plants. After about 3 weeks, the effect of the preparations is scored visually in comparison with untreated controls (herbicidal effect in percent (%): 100% activity=the plants have died, 0% activity=like control plants). • As shown by the results, the compounds according to the invention have good herbicidal pre-emergence activity against a broad spectrum of weed grasses and broad-leaved weeds. […] Some of the compounds according to the invention have high selectivity and are therefore suitable for controlling unwanted vegetation in agricultural crops by the pre-emergence method.
(§3) • ALOMY Alopecurus myosuroides (black-grass) • LOLMU: Lolium multiflorum (Italian ryegrass) • SETVI: Setaria viridis (green foxtail) • BRSNW: Brassica napus (winter rape) • ZEAMX: Zea mays (corn) 2. Post-Emergence Herbicidal Effect and Crop Plant Compatibility • Seeds of monocotyledonous and dicotyledonous weed and crop plants are placed in sandy loam in wood fibre pots, covered with soil and cultivated in a greenhouse under good growth conditions. 2 to 3 weeks after sowing, the test plants are treated at the one-leaf stage. The compounds according to the invention, formulated in the form of wettable powders (WP), are then applied by spraying as aqueous suspension at a water application rate of 600 l/ha (converted) with the addition of 0.2% of wetting agent to the green parts of the plants. After the test plants have been kept in the greenhouse under optimum growth conditions for about 3 weeks, the activity of the preparations is rated visually in comparison to untreated controls (herbicidal activity in percent (%): 100% activity=the plants have died, 0% activity=like control plants). • As shown by the results, the compounds according to the invention have good herbicidal post-emergence activity against a plurality of weed grasses and broad-leaved weeds. […] Some of the compounds according to the invention have high selectivity and are therefore suitable for controlling unwanted vegetation in agricultural crops by the post-emergence method.

[2] = test system: Alopecurus myosuroides (black-grass); assay: Pre-emergence herbicidal effect, ALOMY; type: in vivo; conditions: scored after about 3 weeks
Source text: as §1, §2, §3

[3] = test system: Lolium multiflorum (Italian ryegrass); assay: Pre-emergence herbicidal effect, LOLMU; type: in vivo; conditions: scored after about 3 weeks
Source text: as §1, §2, §3

[4] = test system: Setaria viridis (green foxtail); assay: Pre-emergence herbicidal effect, SETVI; type: in vivo; conditions: scored after about 3 weeks
Source text: as §1, §2, §3

[5] = test system: Avena fatua, Stellaria media, Echinochloa crus-galli, Lolium multiflorum, Setaria viridis, Amaranthus retroflexus, Viola tricolor, Veronica persica and …; assay: Pre-emergence herbicidal activity against harmful plants; type: in vivo; conditions: application rate of 0.32 kg and less of active substance per hectare
Source text: as §1, §2

[6] = test system: Avena fatua, Echinochloa crus-galli, Lolium multiflorum, Setaria viridis and Alopecurus myosuroides; assay: Post-emergence herbicidal effect and crop plant compatibility; type: in vivo; conditions: application rate of 0.32 kg and less of active substance per hectare
Source text: as §3

Zea mays (corn) = assay: Pre-emergence herbicidal effect and crop plant compatibility, ZEAMX; type: in vivo; conditions: scored after about 3 weeks
Source text: as §1, §2, §3

POLCO = assay: Pre-emergence herbicidal effect, POLCO; type: in vivo; conditions: scored after about 3 weeks
Source text: as §1, §2

VERPE = assay: Pre-emergence herbicidal effect, VERPE; type: in vivo, Veronica persica; conditions: scored after about 3 weeks
Source text: as §1, §2

## Cn1nc(C(F)(F)F)c(C[S@+]([O-])C2=NOC(C)(C)C2)c1OC(F)F [Compound 483, 3-[(S)-{[5-(Difluoromethoxy)-1-methyl-3-(trifluoromethyl)-1H-pyrazol-4-yl]methyl}sulfinyl]-5,5-dimethyl-4,5-dihydroisoxazole]
[1]; 20 g of active compound/ha
  herbicidal effect in percent, BRSNW (crop plant): 0%
[1]; 80 g of active compound/ha
  herbicidal effect in percent, BRSNW (crop plant): 0%
[2]; 20 g of active compound/ha
  herbicidal effect in percent, ALOMY: 80%
[2]; 80 g of active compound/ha
  herbicidal effect in percent, ALOMY: 100%
[3]; 20 g of active compound/ha
  herbicidal effect in percent, LOLMU: 60%
[3]; 80 g of active compound/ha
  herbicidal effect in percent, LOLMU: 100%
[4]; 20 g of active compound/ha
  herbicidal effect in percent, SETVI: 80%
[4]; 80 g of active compound/ha
  herbicidal effect in percent, SETVI: 90%
[5]
  herbicidal activity against harmful plants, pre-emergence method: very good herbicidal activity
[6]
  herbicidal activity against harmful plants, post-emergence method: very good herbicidal activity

## Cn1nc(C(F)(F)F)c(C[S@@+]([O-])C2=NOC(C)(C)C2)c1OC(F)F [Compound 664, 3-[(R)-{[5-(difluoromethoxy)-1-methyl-3-(trifluoromethyl)-1H-pyrazol-4-yl]methyl}sulfinyl]-5,5-dimethyl-4,5-dihydroisoxazole]
[5]
  herbicidal activity against harmful plants, pre-emergence method: very good herbicidal activity
[6]
  herbicidal activity against harmful plants, post-emergence method: very good herbicidal activity

## CC1(C)CC([S@@+]([O-])Cc2c(F)cccc2F)=NO1 [Compound 6, 3-[(S)-(2,6-Difluorobenzyl)sulfinyl]-5,5-dimethyl-4,5-dihydroisoxazole]
[1]; 80 g of active compound/ha
  herbicidal effect in percent, BRSNW (crop plant): 0%
[1]; 320 g of active compound/ha
  herbicidal effect in percent, BRSNW (crop plant): 0%
[2]; 80 g of active compound/ha
  herbicidal effect in percent, ALOMY: 90%
[2]; 320 g of active compound/ha
  herbicidal effect in percent, ALOMY: 100%
[3]; 80 g of active compound/ha
  herbicidal effect in percent, LOLMU: 80%
[3]; 320 g of active compound/ha
  herbicidal effect in percent, LOLMU: 100%
[4]; 80 g of active compound/ha
  herbicidal effect in percent, SETVI: 60%
[4]; 320 g of active compound/ha
  herbicidal effect in percent, SETVI: 100%
[5]
  herbicidal activity against harmful plants, pre-emergence method: very good herbicidal activity
[6]
  herbicidal activity against harmful plants, post-emergence method: very good herbicidal activity

## CC1(C)CC([S@+]([O-])Cc2c(F)cccc2F)=NO1 [Compound 228, 3-[(R)-(2,6-difluorobenzyl)sulfinyl]-5,5-dimethyl-4,5-dihydroisoxazole]
[1]; 80 g of active compound/ha
  herbicidal effect in percent, BRSNW (crop plant): 0%
[1]; 320 g of active compound/ha
  herbicidal effect in percent, BRSNW (crop plant): 0%
[2]; 80 g of active compound/ha
  herbicidal effect in percent, ALOMY: 60%
[2]; 320 g of active compound/ha
  herbicidal effect in percent, ALOMY: 80%
[3]; 80 g of active compound/ha
  herbicidal effect in percent, LOLMU: 0%
[3]; 320 g of active compound/ha
  herbicidal effect in percent, LOLMU: 0%
[4]; 80 g of active compound/ha
  herbicidal effect in percent, SETVI: 0%
[4]; 320 g of active compound/ha
  herbicidal effect in percent, SETVI: 50%
[5]
  herbicidal activity against harmful plants, pre-emergence method: very good herbicidal activity
[6]
  herbicidal activity against harmful plants, post-emergence method: very good herbicidal activity

## CC1(C)CC([S+]([O-])Cc2c(Cl)cccc2Cl)=NO1 (racemic) [Racemate of 32 (S config.) and 254 (R config.), 3-[(2,6-dichlorobenzyl)sulfinyl]-5,5-dimethyl-4,5-dihydroisoxazole, reference compound]
[2]; 20 g of active compound/ha
  herbicidal effect in percent, ALOMY: 80%
[2]; 80 g of active compound/ha
  herbicidal effect in percent, ALOMY: 90%
Zea mays (corn); 20 g of active compound/ha
  herbicidal effect in percent, ZEAMX (crop plant): 0%
Zea mays (corn); 80 g of active compound/ha
  herbicidal effect in percent, ZEAMX (crop plant): 10%
POLCO; 80 g of active compound/ha
  herbicidal effect in percent, POLCO: 20%
VERPE; 20 g of active compound/ha
  herbicidal effect in percent, VERPE: 0%

## CC1(C)CC([S@@+]([O-])Cc2c(Cl)cccc2Cl)=NO1 [Compound 32, 3-[(S)-(2,6-Dichlorobenzyl)sulfinyl]-5,5-dimethyl-4,5-dihydroisoxazole]
[2]; 20 g of active compound/ha
  herbicidal effect in percent, ALOMY: 80%
[2]; 80 g of active compound/ha
  herbicidal effect in percent, ALOMY: 100%
Zea mays (corn); 20 g of active compound/ha
  herbicidal effect in percent, ZEAMX (crop plant): 0%
Zea mays (corn); 80 g of active compound/ha
  herbicidal effect in percent, ZEAMX (crop plant): 0%
POLCO; 20 g of active compound/ha
  herbicidal effect in percent, POLCO: 40%
POLCO; 80 g of active compound/ha
  herbicidal effect in percent, POLCO: 80%
VERPE; 20 g of active compound/ha
  herbicidal effect in percent, VERPE: 40%
VERPE; 80 g of active compound/ha
  herbicidal effect in percent, VERPE: 100%
[5]
  herbicidal activity against harmful plants, pre-emergence method: very good herbicidal activity
[6]
  herbicidal activity against harmful plants, post-emergence method: very good herbicidal activity

## CC1(C)CC([S@+]([O-])Cc2c(Cl)cccc2Cl)=NO1 [Compound 254, 3-[(R)-(2,6-dichlorobenzyl)sulfinyl]-5,5-dimethyl-4,5-dihydroisoxazole]
[2]; 20 g of active compound/ha
  herbicidal effect in percent, ALOMY: 0%
[2]; 80 g of active compound/ha
  herbicidal effect in percent, ALOMY: 60%
Zea mays (corn); 20 g of active compound/ha
  herbicidal effect in percent, ZEAMX (crop plant): 0%
Zea mays (corn); 80 g of active compound/ha
  herbicidal effect in percent, ZEAMX (crop plant): 0%
POLCO; 20 g of active compound/ha
  herbicidal effect in percent, POLCO: 10%
POLCO; 80 g of active compound/ha
  herbicidal effect in percent, POLCO: 20%
VERPE; 20 g of active compound/ha
  herbicidal effect in percent, VERPE: 0%
VERPE; 80 g of active compound/ha
  herbicidal effect in percent, VERPE: 20%
[5]
  herbicidal activity against harmful plants, pre-emergence method: very good herbicidal activity
[6]
  herbicidal activity against harmful plants, post-emergence method: very good herbicidal activity

## CC1(C)CC([S+]([O-])Cc2c(F)cccc2F)=NO1 (racemic) [Racemate of 6 (S config.) and 228 (R config.), 3-[(2,6-difluorobenzyl)sulfinyl]-5,5-dimethyl-4,5-dihydroisoxazole, reference compound]
[1]; 80 g of active compound/ha
  herbicidal effect in percent, BRSNW (crop plant): 20%
[1]; 320 g of active compound/ha
  herbicidal effect in percent, BRSNW (crop plant): 30%
[2]; 80 g of active compound/ha
  herbicidal effect in percent, ALOMY: 70%
[2]; 320 g of active compound/ha
  herbicidal effect in percent, ALOMY: 100%
[3]; 80 g of active compound/ha
  herbicidal effect in percent, LOLMU: 80%
[3]; 320 g of active compound/ha
  herbicidal effect in percent, LOLMU: 80%
[4]; 80 g of active compound/ha
  herbicidal effect in percent, SETVI: 40%
[4]; 320 g of active compound/ha
  herbicidal effect in percent, SETVI: 40%

## Cn1nc(C(F)(F)F)c(C[S+]([O-])C2=NOC(C)(C)C2)c1OC(F)F (racemic) [Racemate of 483 (S config.) and 664 (R config.), 3-({[5-(difluoromethoxy)-1-methyl-3-(trifluoromethyl)-1H-pyrazol-4-yl]methyl}sulfinyl)-5,5-dimethyl-4,5-dihydroisoxazole, reference compound]
[1]; 20 g of active compound/ha
  herbicidal effect in percent, BRSNW (crop plant): 0%
[1]; 80 g of active compound/ha
  herbicidal effect in percent, BRSNW (crop plant): 0%
[2]; 20 g of active compound/ha
  herbicidal effect in percent, ALOMY: 0%
[2]; 80 g of active compound/ha
  herbicidal effect in percent, ALOMY: 90%
[3]; 20 g of active compound/ha
  herbicidal effect in percent, LOLMU: 0%
[3]; 80 g of active compound/ha
  herbicidal effect in percent, LOLMU: 90%
[4]; 20 g of active compound/ha
  herbicidal effect in percent, SETVI: 40%
[4]; 80 g of active compound/ha
  herbicidal effect in percent, SETVI: 80%
